Reference: ChEMBL document CHEMBL3860084, “Allyl and prenyl ethers of mansonone G, new potential semisynthetic antibacterial agents” (2016)
In brackets after ≈: the same amount, converted by molar mass.

Tests used:
[1] = system: Streptococcus mutans; experiment: Antibacterial activity against Streptococcus mutans ATCC 25175 by resazurin based broth microdilution method; assay type: functional
[2] = system: Staphylococcus aureus; experiment: Antibacterial activity against Staphylococcus aureus ATCC 25923 at 1000 uM after 24 hrs by agar well-diffusion method; assay type: functional; settings: ATCC 25923, 24 h, read-out: DIZ
[3] = system: Salmonella typhi; experiment: Antibacterial activity against Salmonella typhi ATCC 422 at 1000 uM after 24 hrs by agar well-diffusion method; assay type: functional, Salmonella enterica subsp. enterica serovar Typhi; settings: Salmonella enterica, ATCC 422, 24 h; read-out: DIZ
[4] = system: Staphylococcus aureus; experiment: Antibacterial activity against Staphylococcus aureus ATCC 25923 by resazurin based broth microdilution method; assay type: functional
[5] = system: Cutibacterium acnes; experiment: Antibacterial activity against Propionibacterium acnes KCCM 41747 by resazurin based broth microdilution method; assay type: functional
[6] = system: Salmonella typhi; experiment: Antibacterial activity against Salmonella typhi ATCC 422 by resazurin based broth microdilution method; assay type: functional, Salmonella enterica subsp. enterica serovar Typhi; settings: Salmonella enterica
[7] = system: Streptococcus mutans; experiment: Antibacterial activity against Streptococcus mutans ATCC 25175 at 1000 uM after 24 hrs by agar well-diffusion method; assay type: functional; settings: ATCC 25175, 24 h, read-out: DIZ
[8] = system: Streptococcus sobrinus; experiment: Antibacterial activity against Streptococcus sobrinus KCCM 11898 at 1000 uM after 24 hrs by agar well-diffusion method; assay type: functional; settings: KCCM 11898, 24 h, read-out: DIZ
[9] = system: Cutibacterium acnes; experiment: Antibacterial activity against Propionibacterium acnes KCCM 41747 at 1000 uM after 24 hrs by agar well-diffusion method; assay type: functional; settings: KCCM 41747, 24 h, read-out: DIZ
[10] = system: Streptococcus sobrinus; experiment: Antibacterial activity against Streptococcus sobrinus KCCM 11898 by resazurin based broth microdilution method; assay type: functional
[11] = system: Salmonella typhi; experiment: Antibacterial activity against Salmonella typhi ATCC 422 at 500 uM after 24 hrs by agar well-diffusion method; assay type: functional, Salmonella enterica subsp. enterica serovar Typhi; settings: Salmonella enterica, ATCC 422, 24 h; read-out: DIZ
[12] = system: Streptococcus sobrinus; experiment: Antibacterial activity against Streptococcus sobrinus KCCM 11898 at 500 uM after 24 hrs by agar well-diffusion method; assay type: functional; settings: KCCM 11898, 24 h, read-out: DIZ
[13] = system: Cutibacterium acnes; experiment: Antibacterial activity against Propionibacterium acnes KCCM 41747 at 500 uM after 24 hrs by agar well-diffusion method; assay type: functional; settings: KCCM 41747, 24 h, read-out: DIZ
[14] = system: Streptococcus mutans; experiment: Antibacterial activity against Streptococcus mutans ATCC 25175 at 500 uM after 24 hrs by agar well-diffusion method; assay type: functional; settings: ATCC 25175, 24 h, read-out: DIZ
[15] = system: Staphylococcus aureus; experiment: Antibacterial activity against Staphylococcus aureus ATCC 25923 at 500 uM after 24 hrs by agar well-diffusion method; assay type: functional; settings: ATCC 25923, 24 h, read-out: DIZ

SMILES | MIC [1] [µM] | zone of inhibition at 1000 µM [2] [mm] | zone of inhibition at 1000 µM [3] [mm] | MIC [4] [µM] | MIC [5] [µM] | MIC [6] [µM] | zone of inhibition at 1000 µM [7] [mm] | zone of inhibition at 1000 µM [8] [mm] | zone of inhibition at 1000 µM [9] [mm] | MIC [10] [µM] | zone of inhibition at 500 µM [11] [mm] | zone of inhibition at 500 µM [12] [mm] | zone of inhibition at 500 µM [13] [mm] | zone of inhibition at 500 µM [14] [mm] | zone of inhibition at 500 µM [15] [mm]
CCCCOc1cc(C)c2c(c1C(C)C)C=C(C)C(=O)C2=O | 7.8 (≈ 2.34 µg/mL) | 18 | 12 | 15.6 (≈ 4.69 µg/mL) | 15.6 (≈ 4.69 µg/mL) | 3.9 (≈ 1.17 µg/mL) | 18.3 | 15.5 | 13.6 | 125 (≈ 37.5 µg/mL) | – | – | – | – | –
CCCC(=O)Oc1cc(C)c2c(c1C(C)C)C=C(C)C(=O)C2=O | – | 18 | 10.7 | 62.5 (≈ 19.6 µg/mL) | – | – | 12.7 | 13.7 | 13 | – | – | – | – | – | –
O=C(N[C@H](CO)[C@H](O)c1ccc([N+](=O)[O-])cc1)C(Cl)Cl [CHLORAMPHENICOL] | – | – | – | – | – | – | – | – | – | – | 24.8 | 25.3 | 30 | 25.7 | 20.7
CCCCCCCCCC(=O)Oc1cc(C)c2c(c1C(C)C)C=C(C)C(=O)C2=O | – | 7 | 8.2 | – | – | – | 9.7 | 10.7 | 11.4 | – | – | – | – | – | –
CCCCCCCCOc1cc(C)c2c(c1C(C)C)C=C(C)C(=O)C2=O | 31.2 (≈ 11.1 µg/mL) | 20 | 16.3 | 15.6 (≈ 5.56 µg/mL) | 31.2 (≈ 11.1 µg/mL) | 31.2 (≈ 11.1 µg/mL) | 20 | 15.7 | 14.6 | 31.2 (≈ 11.1 µg/mL) | – | – | – | – | –
CC1=C2OCC(C)c3ccc(C)c(c32)C(=O)C1=O (stereo not given) [MANSONONE E] | 3.9 (≈ 0.945 µg/mL) | 19.7 | 11.6 | 31.2 (≈ 7.57 µg/mL) | 31.2 (≈ 7.57 µg/mL) | 15.6 (≈ 3.78 µg/mL) | 20.3 | 16.7 | 13.5 | 15.6 (≈ 3.78 µg/mL) | – | – | – | – | –
CC1=C2OCC(C)c3c(O)cc(C)c(c32)C(=O)C1=O (stereo not given) | 62.5 (≈ 16.1 µg/mL) | 12 | 11 | 250 (≈ 64.6 µg/mL) | 125 (≈ 32.3 µg/mL) | 31.2 (≈ 8.07 µg/mL) | 10.3 | 8.3 | 11.9 | 62.5 (≈ 16.1 µg/mL) | – | – | – | – | –
CCOc1cc(C)c2c(c1C(C)C)C=C(C)C(=O)C2=O | 62.5 (≈ 17 µg/mL) | 16 | 10.8 | – | 62.5 (≈ 17 µg/mL) | – | 18 | 14 | 13.3 | 31.2 (≈ 8.51 µg/mL) | – | – | – | – | –
COc1cc(C)c2c(c1C(C)C)C=C(C)C(=O)C2=O | – | 15.3 | 10.7 | – | – | – | 11.3 | 10.7 | 13.2 | – | – | – | – | – | –
CCCCCC(=O)Oc1cc(C)c2c(c1C(C)C)C=C(C)C(=O)C2=O | – | 14.7 | 9.7 | – | – | – | 12 | 12.7 | 11.6 | – | – | – | – | – | –
CC(C)=CCOc1cc(C)c2c(c1C(C)C)C=C(C)C(=O)C2=O | 31.2 (≈ 9.76 µg/mL) | 23.7 | 16.3 | 0.975 (≈ 0.305 µg/mL) | 31.2 (≈ 9.76 µg/mL) | 62.5 (≈ 19.5 µg/mL) | 17.7 | 16.7 | 15 | 31.2 (≈ 9.76 µg/mL) | – | – | – | – | –
CCCCCCCCCCCCOc1cc(C)c2c(c1C(C)C)C=C(C)C(=O)C2=O | – | 9 | 11.5 | – | – | – | 9 | 8 | 11.9 | – | – | – | – | – | –
CC(C)=CCC/C(C)=C/COc1cc(C)c2c(c1C(C)C)C=C(C)C(=O)C2=O | – | 14 | 14 | – | – | 125 (≈ 47.6 µg/mL) | 16.2 | 11.5 | 11.1 | – | – | – | – | – | –
CC1=Cc2c(c(C)cc(O)c2C(C)C)C(=O)C1=O [MANSONONE G] | 31.2 (≈ 7.63 µg/mL) | 13.7 | 11.9 | 62.5 (≈ 15.3 µg/mL) | 31.2 (≈ 7.63 µg/mL) | 15.6 (≈ 3.81 µg/mL) | 14.7 | 10 | 15.6 | 31.2 (≈ 7.63 µg/mL) | – | – | – | – | –
C=CCOc1cc(C)c2c(c1C(C)C)C=C(C)C(=O)C2=O | 31.2 (≈ 8.89 µg/mL) | 23 | 14.5 | 0.975 (≈ 0.277 µg/mL) | 31.2 (≈ 8.89 µg/mL) | 62.5 (≈ 17.8 µg/mL) | 17.3 | 16 | 14.8 | 15.6 (≈ 4.44 µg/mL) | – | – | – | – | –
CCCCCCCC(=O)Oc1cc(C)c2c(c1C(C)C)C=C(C)C(=O)C2=O | – | 8.7 | 9.6 | – | – | – | 10.3 | 11.3 | 11.5 | – | – | – | – | – | –
CC1=Cc2c(C(C)C)ccc(C)c2C(=O)C1=O | 15.6 (≈ 3.56 µg/mL) | 12.7 | 11.3 | 62.5 (≈ 14.3 µg/mL) | 62.5 (≈ 14.3 µg/mL) | 31.2 (≈ 7.13 µg/mL) | 13.7 | 9.3 | 13.3 | 31.2 (≈ 7.13 µg/mL) | – | – | – | – | –
